Source: US20260158017A1, “KIF18A INHIBITOR” (WIGEN BIOMEDICINE TECHNOLOGY (SHANGHAI) CO., LTD., priority 2021, published 2026)

Molecular target: T1, Recombinant human KIF18A (1-467His-tagged) protein (Homo sapiens, UniProt Q8NI77)
T1 construct: Recombinant human KIF18A (1-467His-tagged) protein; His; made in house
Assay: KIF18A enzyme assay (microtubule-stimulated ATPase activity, ADP-Glo)
Type: biochemical
Details: 30 nM KIF18A, 75 μM ATP, 30 μg/mL pig microtubules; read-out: Inhibitory activity against KIF18A IC50
Method in brief: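 Buffer 15 mM Tris pH 7.5, 10 mM MgCl2, 0.01% Pluronic F-68, 1 μM paclitaxel, 30 μg/mL pig microtubules; reactions at room temperature. IC50 from inhibition relative to DMSO.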

T1 sequence (Q8NI77 1-467): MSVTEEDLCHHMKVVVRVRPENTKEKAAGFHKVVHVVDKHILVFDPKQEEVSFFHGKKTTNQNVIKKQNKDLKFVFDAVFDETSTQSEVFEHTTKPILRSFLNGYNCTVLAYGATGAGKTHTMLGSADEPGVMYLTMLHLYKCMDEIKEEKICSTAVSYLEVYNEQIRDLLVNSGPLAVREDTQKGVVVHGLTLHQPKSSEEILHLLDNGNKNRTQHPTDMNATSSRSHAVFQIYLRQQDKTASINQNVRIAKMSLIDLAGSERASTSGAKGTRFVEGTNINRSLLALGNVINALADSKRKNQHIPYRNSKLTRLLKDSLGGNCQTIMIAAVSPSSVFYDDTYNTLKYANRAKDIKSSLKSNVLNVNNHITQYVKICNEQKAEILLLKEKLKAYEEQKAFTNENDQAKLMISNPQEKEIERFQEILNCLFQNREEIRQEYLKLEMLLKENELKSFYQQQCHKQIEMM
T1 sequence (P02550 whole entry partner): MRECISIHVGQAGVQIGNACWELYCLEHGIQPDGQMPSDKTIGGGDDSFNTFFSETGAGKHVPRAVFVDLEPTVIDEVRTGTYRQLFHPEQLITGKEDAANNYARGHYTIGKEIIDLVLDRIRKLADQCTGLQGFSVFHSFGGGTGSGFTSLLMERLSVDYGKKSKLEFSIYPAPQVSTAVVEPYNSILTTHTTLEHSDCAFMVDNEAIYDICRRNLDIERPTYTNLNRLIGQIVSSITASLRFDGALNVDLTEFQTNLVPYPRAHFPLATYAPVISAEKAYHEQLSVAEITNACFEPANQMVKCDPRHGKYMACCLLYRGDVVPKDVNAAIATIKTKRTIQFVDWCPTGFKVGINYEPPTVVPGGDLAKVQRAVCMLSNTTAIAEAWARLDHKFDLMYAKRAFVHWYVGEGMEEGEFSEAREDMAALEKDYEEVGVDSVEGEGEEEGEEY
T1 sequence (P02554 whole entry partner): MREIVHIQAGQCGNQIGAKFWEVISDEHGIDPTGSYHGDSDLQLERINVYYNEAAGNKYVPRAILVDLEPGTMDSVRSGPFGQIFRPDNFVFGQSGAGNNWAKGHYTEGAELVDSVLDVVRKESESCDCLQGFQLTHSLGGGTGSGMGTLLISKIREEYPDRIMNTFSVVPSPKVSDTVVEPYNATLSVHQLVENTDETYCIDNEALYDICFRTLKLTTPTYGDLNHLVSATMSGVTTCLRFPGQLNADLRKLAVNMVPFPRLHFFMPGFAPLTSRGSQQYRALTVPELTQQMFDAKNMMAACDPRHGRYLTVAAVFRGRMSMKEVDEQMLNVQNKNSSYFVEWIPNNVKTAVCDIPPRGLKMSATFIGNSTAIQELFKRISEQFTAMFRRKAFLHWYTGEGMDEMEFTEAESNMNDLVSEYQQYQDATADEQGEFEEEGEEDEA

Work on `COc1ccc(C(=O)Nc2cnc(NS(=O)(=O)CCO)cc2N2CCC3(CC2)CC3)nc1OCCC(F)(F)F` [Compound 357] yielded an IC50 of at most 100 nM.
For `COc1ccc(C(=O)Nc2cnc(NS(=O)(=O)[C@@H](C)CO)cc2N2CCC3(CC2)CC3)nc1N1CCC(F)(F)CC1` [Compound 365], the IC50 was at most 100 nM.
In the case of `COc1ccc(C(=O)Nc2ccc(NS(=O)(=O)CCO)cc2N2CCC3(CC2)CC3)nc1N1CCO[C@H](C)C1` [Compound 322], the IC50 is reported as at most 100 nM.
`CSc1ccc(NC(=O)c2cnc(NS(=O)(=O)CCO)cc2N2CCC3(CC2)CC3)cc1N1CC(F)(F)C1` [Compound 612] was tested, and the IC50 was at most 100 nM.
With `C[C@H]1CN(c2cc(C(=O)Nc3cnc(S(=O)(=O)NCCO)cc3N3CCC4(CC3)CC4)ccc2[N+](=O)[O-])CCO1` [Compound 211] the IC50 was 100 to 500 nM.
`COc1ccc(NC(=O)c2ccc(S(=O)(=O)NCCO)cc2N2CCC3(CC2)CC3)nc1N1CCC(C)(F)C1` (centres unmarked) [Compound 280] was tested, and the IC50 was at most 100 nM.
In the case of `COc1ccc(NC(=O)c2ccc(NS(=O)(=O)CCO)cc2N2CCC3(CC2)CC3)nc1N1CC2CC2C1` (centres unmarked) [Compound 266], the IC50 is reported as at most 100 nM.
Compound `C[C@@H](CO)S(=O)(=O)Nc1ccc(NC(=O)c2ccc(OCF)c(N3CCC(F)(F)CC3)c2)c(N2CCC3(CC2)CC3)c1` [Compound 525] has an IC50 of at most 100 nM.
Work on `COc1ccc(NC(=O)c2cnc(NS(=O)(=O)[C@@H](C)CO)cc2N2CCC3(CC2)CC3)nc1N1CCC(F)(F)CC1` [Compound 301] yielded an IC50 of at most 100 nM.
With `C[C@H](CO)NS(=O)(=O)c1cc(N2CCC3(CC2)CC3)c(NC(=O)c2ccc([N+](=O)[O-])c(N3CCO[C@H](C)C3)n2)cn1` [Compound 256] the IC50 was 100 to 500 nM.
`COc1ccc(NC(=O)c2cnc(S(=O)(=O)N[C@H](C)CO)cc2N2CCC3(CC2)CC3)nc1N1CCO[C@H](C)C1` [Compound 320] showed an IC50 of at most 100 nM.
Work on `COc1ccc(NC(=O)c2cnc(NS(=O)(=O)CCO)cc2N2CCC3(CC2)CC3)nc1N1CCC(C)(F)C1` (centres unmarked) [Compound 296] yielded an IC50 of at most 100 nM.
Compound `COc1ccc(C(=O)Nc2cnc(S(=O)(=O)NCCO)cc2N2CCC3(CC2)CC3)nc1N1CCO[C@@H](C)C1` [Compound 371] has an IC50 of at most 100 nM.
`CSc1ccc(NC(=O)c2cnc(NS(=O)(=O)CCO)cc2N2CCC3(CC2)CC3)cc1N1CCC(F)CC1` [Compound 617] showed an IC50 of at most 100 nM.
`CSc1ccc(NC(=O)c2ccc(NS(=O)(=O)CCO)cc2N2CCC3(CC2)CC3)nc1N1CC2CC2C1` (centres unmarked) [Compound 602] showed an IC50 of at most 100 nM.
Work on `O=C(Nc1ccc([N+](=O)[O-])c(N2CC(F)(F)C2)n1)c1cnc(NS(=O)(=O)CCO)cc1N1CCC2(CC1)CC2` [Compound 132] yielded an IC50 of at most 100 nM.
`CC(C)(CO)Nc1cc(C(=O)Nc2ccc(NS(=O)(=O)CCO)cc2N2CCC3(CC2)CC3)ccc1OCF` [Compound 523] showed an IC50 of at most 100 nM.
Work on `O=C(Nc1ccc(S(=O)(=O)NCCO)cc1N1CCC2(CC1)CC2)c1ccc(OCF)c(N2CCC3(CC3)C2)c1` [Compound 534] yielded an IC50 of 100 to 500 nM.
Compound `CC(C)(CO)Nc1nc(C(=O)Nc2cnc(S(=O)(=O)NCCO)cc2N2CCC3(CC2)CC3)ccc1[N+](=O)[O-]` [Compound 251] has an IC50 of 100 to 500 nM.
`C[C@H](CO)NS(=O)(=O)c1ccc(NC(=O)c2ccc(OCF)c(N3CCC(F)(F)CC3)n2)c(N2CCC3(CC2)CC3)c1` [Compound 574] was tested, and the IC50 was 100 to 500 nM.
For `C[C@@H]1CN(c2cc(NC(=O)c3ccc(S(=O)(=O)N[C@@H](C)CO)cc3N3CCC4(CC3)CC4)ccc2OCF)CCO1` [Compound 415], the IC50 was at most 100 nM.
For `O=C(Nc1cnc(NS(=O)(=O)CCO)cc1N1CCC2(CC1)CC2)c1ccc([N+](=O)[O-])c(OC2CCC2)n1` [Compound 231], the IC50 was at most 100 nM.
In the case of `O=C(Nc1ccc(S(=O)(=O)NCCO)cc1N1CCC2(CC1)CC2)c1ccc([N+](=O)[O-])c(N2CC3CC3C2)n1` (centres unmarked) [Compound 186], the IC50 is reported as 100 to 500 nM.
With `O=C(Nc1ccc(OCF)c(N2CCC(F)(F)CC2)n1)c1ccc(NS(=O)(=O)CCO)cc1N1CCC2(CC1)CC2` [Compound 417] the IC50 was at most 100 nM.
`O=C(Nc1ccc([N+](=O)[O-])c(N2CCC(F)(F)CC2)n1)c1ccc(S(=O)(=O)NCCO)cc1N1CCC2(CC1)CC2` [Compound 81] gave an IC50 of at most 100 nM.
`O=C(Nc1ccc(NS(=O)(=O)CCO)cc1N1CCC2(CC1)CC2)c1ccc(OCF)c(N2CCC(F)CC2)n1` [Compound 553] showed an IC50 of at most 100 nM.
`COc1ccc(C(=O)Nc2cnc(S(=O)(=O)N[C@H](C)CO)cc2N2CCC3(CC2)CC3)nc1N1CCC(F)(F)CC1` [Compound 382] was tested, and the IC50 was at most 100 nM.
Work on `COc1ccc(NC(=O)c2ccc(NS(=O)(=O)CCO)cc2N2CCC3(CC2)CC3)nc1N1CCC(F)CC1` [Compound 265] yielded an IC50 of at most 100 nM.
Compound `C[C@H]1CN(c2nc(C(=O)Nc3cnc(NS(=O)(=O)CCO)cc3N3CCC4(CC3)CC4)ccc2[N+](=O)[O-])CCO1` [Compound 227] has an IC50 of at most 100 nM.
Compound `CSc1ccc(NC(=O)c2ccc(NS(=O)(=O)CCO)cc2N2CCC3(CC2)CC3)cc1N1CCC(F)(F)CC1` [Compound 577] has an IC50 of at most 100 nM.
Work on `C[C@@H]1CN(c2nc(NC(=O)c3cnc(NS(=O)(=O)CCO)cc3N3CCC4(CC3)CC4)ccc2OCF)CCO1` [Compound 482] yielded an IC50 of at most 100 nM.
`CC1(F)CCN(c2cc(NC(=O)c3cnc(S(=O)(=O)NCCO)cc3N3CCC4(CC3)CC4)ccc2[N+](=O)[O-])C1` (centres unmarked) [Compound 120] was tested, and the IC50 was at most 100 nM.
In the case of `COc1ccc(NC(=O)c2cnc(NS(=O)(=O)CCO)cc2N2CCC3(CC2)CC3)nc1N1CC2CC2C1` (centres unmarked) [Compound 298], the IC50 is reported as at most 100 nM.
`C[C@@H](CO)S(=O)(=O)Nc1cc(N2CCC3(CC2)CC3)c(C(=O)Nc2ccc([N+](=O)[O-])c(N3CCC(F)(F)CC3)c2)cn1` [Compound 109] showed an IC50 of at most 100 nM.
In the case of `CC1(F)CCN(c2nc(NC(=O)c3ccc(S(=O)(=O)NCCO)cc3N3CCC4(CC3)CC4)ccc2OCF)C1` (centres unmarked) [Compound 440], the IC50 is reported as at most 100 nM.
`O=C(Nc1ccc([N+](=O)[O-])c(N2CCC(F)CC2)n1)c1ccc(NS(=O)(=O)CCO)cc1N1CCC2(CC1)CC2` [Compound 73] gave an IC50 of at most 100 nM.
`C[C@H](CO)NS(=O)(=O)c1ccc(NC(=O)c2ccc(OCF)c(N3CCC(F)(F)CC3)c2)c(N2CCC3(CC2)CC3)c1` [Compound 542] showed an IC50 of 100 to 500 nM.
`CSc1ccc(NC(=O)c2ccc(NS(=O)(=O)CCO)cc2N2CCC3(CC2)CC3)cc1N1CCC(C)(F)C1` (centres unmarked) [Compound 584] showed an IC50 of at most 100 nM.
Compound `O=C(Nc1ccc(NS(=O)(=O)CCO)cc1N1CCC2(CC1)CC2)c1ccc(OCF)c(N2CCC(F)(F)CC2)c1` [Compound 513] has an IC50 of at most 100 nM.
`O=C(Nc1ccc([N+](=O)[O-])c(N2CCC3(CC3)C2)n1)c1ccc(S(=O)(=O)NCCO)cc1N1CCC2(CC1)CC2` [Compound 86] showed an IC50 of at most 100 nM.
`O=C(Nc1ccc(OCF)c(N2CC3CC3C2)n1)c1cnc(S(=O)(=O)NCCO)cc1N1CCC2(CC1)CC2` (centres unmarked) [Compound 506] was tested, and the IC50 was at most 100 nM.
`CSc1ccc(NC(=O)c2ccc(NS(=O)(=O)CCO)cc2N2CCC3(CC2)CC3)cc1N1CCC2(CC2)C1` [Compound 582] showed an IC50 of at most 100 nM.
With `CC1(F)CCN(c2nc(C(=O)Nc3cnc(NS(=O)(=O)CCO)cc3N3CCC4(CC3)CC4)ccc2[N+](=O)[O-])C1` (centres unmarked) [Compound 232] the IC50 was at most 100 nM.
`COc1ccc(NC(=O)c2cnc(S(=O)(=O)NCCO)cc2N2CCC3(CC2)CC3)nc1N1CCC(C)(F)C1` (centres unmarked) [Compound 312] gave an IC50 of at most 100 nM.
In the case of `C[C@H](CO)NS(=O)(=O)c1cc(N2CCC3(CC2)CC3)c(C(=O)Nc2ccc([N+](=O)[O-])c(N3CCC(F)(F)CC3)c2)cn1` [Compound 126], the IC50 is reported as at most 100 nM.
`O=C(Nc1ccc([N+](=O)[O-])c(N2CC(F)(F)C2)c1)c1cnc(NS(=O)(=O)CCO)cc1N1CCC2(CC1)CC2` [Compound 100] showed an IC50 of at most 100 nM.
In the case of `O=C(Nc1ccc([N+](=O)[O-])c(OC2CCC2)c1)c1cnc(S(=O)(=O)NCCO)cc1N1CCC2(CC1)CC2` [Compound 119], the IC50 is reported as at most 100 nM.
In the case of `COc1ccc(NC(=O)c2cnc(S(=O)(=O)NCCO)cc2N2CCC3(CC2)CC3)nc1N1CCO[C@H](C)C1` [Compound 306], the IC50 is reported as at most 100 nM.
`C[C@@H]1CN(c2nc(NC(=O)c3cnc(S(=O)(=O)NCCO)cc3N3CCC4(CC3)CC4)ccc2OCF)CCO1` [Compound 498] was tested, and the IC50 was at most 100 nM.
With `C[C@@H]1CN(c2cc(NC(=O)c3cnc(NS(=O)(=O)[C@H](C)CO)cc3N3CCC4(CC3)CC4)ccc2[N+](=O)[O-])CCO1` [Compound 112] the IC50 was at most 100 nM.
In the case of `CC1(F)CCN(c2nc(C(=O)Nc3ccc(NS(=O)(=O)CCO)cc3N3CCC4(CC3)CC4)ccc2OCF)C1` (centres unmarked) [Compound 552], the IC50 is reported as at most 100 nM.
`C[C@H](CO)NS(=O)(=O)c1ccc(C(=O)Nc2ccc(OCF)c(N3CCC(F)(F)CC3)c2)c(N2CCC3(CC2)CC3)c1` [Compound 414] gave an IC50 of at most 100 nM.
For `O=C(Nc1ccc(NS(=O)(=O)CCO)cc1N1CCC2(CC1)CC2)c1ccc(OCF)c(N2CCOCC2)c1` [Compound 524], the IC50 was at most 100 nM.
Work on `COc1ccc(NC(=O)c2ccc(NS(=O)(=O)CCO)cc2N2CCC3(CC2)CC3)nc1N1CCC(C)(F)C1` (centres unmarked) [Compound 264] yielded an IC50 of at most 100 nM.
`CSc1ccc(NC(=O)c2cnc(NS(=O)(=O)[C@@H](C)CO)cc2N2CCC3(CC2)CC3)cc1N1CCO[C@H](C)C1` [Compound 623] gave an IC50 of at most 100 nM.
Work on `C[C@H]1CN(c2nc(NC(=O)c3cnc(NS(=O)(=O)CCO)cc3N3CCC4(CC3)CC4)ccc2OCF)CCO1` [Compound 483] yielded an IC50 of at most 100 nM.
For `O=C(Nc1ccc(OCF)c(N2CCC3(CC3)C2)n1)c1cnc(S(=O)(=O)NCCO)cc1N1CCC2(CC1)CC2` [Compound 502], the IC50 was at most 100 nM.
`COc1ccc(C(=O)Nc2ccc(NS(=O)(=O)CCO)cc2N2CCC3(CC2)CC3)nc1N1CCC(C)(F)C1` (centres unmarked) [Compound 328] showed an IC50 of at most 100 nM.
Work on `C[C@H](CO)NS(=O)(=O)c1cc(N2CCC3(CC2)CC3)c(NC(=O)c2ccc([N+](=O)[O-])c(N3CCC(F)(F)CC3)c2)cn1` [Compound 222] yielded an IC50 of 100 to 500 nM.
Compound `COc1ccc(NC(=O)c2cnc(NS(=O)(=O)CCO)cc2N2CCC3(CC2)CC3)nc1N1CCC2(CC2)C1` [Compound 294] has an IC50 of at most 100 nM.
In the case of `COc1ccc(C(=O)Nc2ccc(S(=O)(=O)NCCO)cc2N2CCC3(CC2)CC3)nc1N1CCO[C@@H](C)C1` [Compound 339], the IC50 is reported as at most 100 nM.
`O=C(Nc1ccc([N+](=O)[O-])c(N2CC3CC3C2)n1)c1ccc(NS(=O)(=O)CCO)cc1N1CCC2(CC1)CC2` (centres unmarked) [Compound 74] gave an IC50 of at most 100 nM.
